Patent US20110165173A1, “THERAPEUTIC AGENT AND DETECTION REAGENT FOR ARTERIOSCLEROTIC DISEASE WHICH TARGETS FOR SALUSIN” (PROTEINEXPRESS CO., LTD., priority 2007, published 2011)

Columns and labels:
ACAT activity = ACAT activity assay by liposome reconstitution method in human monocyte-derived macrophages; assay type: cell-based; details: 0.6 nM during 7-day culture
From the text: For ACAT activity assay, the liposome reconstitution method was used. This method involves the use of a system in which the ACAT-1 protein present in the endoplasmic reticulum is reconstituted into liposomes with the use of mixed micelles comprising cholesterol/phosphatidylcholine, thereby achieving a saturated concentration level of cholesterol that can be used as an ACAT-1 substrate [Cheng D et al., J Biol Chem. 1995; 270: 685-695.]. In the case of the conventionally used microsome method, cholesterol that endogenously exists in the endoplasmic reticulum has been used as a substrate. However, in general, the endoplasmic reticulum membrane is poor in cholesterol. Therefore, it is thought that the saturated level of cholesterol capable of serving as an ACAT substrate has not been achieved, resulting in underestimation of ACAT activity. Herein, ACAT activity was assayed by adding another substrate, [^14C]oleoyl-CoA, to a reaction system and assaying the cholesterol [^14C]oleate generated through the ACAT reaction (FIG. 4).
Peripheral blood human monocytes (4×10^6 cells/2 mL) were seeded on 4 to 6 6-cm dishes and cultured for 7 days so as to differentiate into macrophages. At such time, salusin-α or salusin-β was added during culture. […] The protein concentration of the homogenized cell extraction solution was quantitatively assayed by the BCA method (Pierce). […]

[1] = test system: macrophages of apoE-deficient mice; assay: Cholesterol efflux caused by HDL in macrophages collected from treated apoE-deficient mice; assay type: in vivo; details: 0.6 nmol/kg/h, four weeks; P<0.01
Description: (§1) 13-week-old male apoE-deficient mice (72 mice) were divided into the following 6 groups: (i) physiological salt saline (control); (ii) salusin-α (0.6 nmol/kg/h); (iii) salusin-β (0.6 nmol/kg/h); (iv) salusin-α (0.6 nmol/kg/h)+anti-salusin-α serum (1.4 μg/kg/h); (v) salusin-β (0.6 nmol/kg/h)+anti-salusin-β serum (1.4 μg/kg/h); and (vi) anti-salusin-β serum (1.4 μg/kg/h). The mice were subjected to continuous subcutaneous administration with the use of an osmotic mini-pump for 4 to 8 weeks. The osmotic mini-pump and the solution contained therein were changed every week.
Macrophages collected in the above manner were kept warm for 24 hours in a culture solution prepared as above containing oxidized LDL (10 μg/ml) labeled with [^3H]cholesterol (74 kBq/mL) and washed twice with PBS. Thereafter, the macrophages were kept warm for 16 hours in an RPMI1640 solution containing 0.1% BSA to which HDL (15 μg/mL) had been added. The culture solution was centrifuged at 15,000 rpm for 10 minutes so as to remove the residues therefrom. […] The radioactivity of [^3H]cholesterol in the culture solution and that in the cell extraction solution were assayed: cholesterol efflux (%)=the radioactivity of [^3H]cholesterol in the culture solution/the radioactivity of [^3H]cholesterol in the culture solution+the radioactivity of [^3H]cholesterol in the cell extraction solution×100

ACAT1 = ACAT1 expression by macrophages of treated apoE-deficient mice (Western blotting); assay type: in vivo; details: four weeks, P<0.05
Description: as §1
(§2) Macrophages were collected as in the experiment in (1), and the protein expression of the gene involved in foaming of macrophages (i.e., scavenger receptors CD36 and SR-A capable of recognizing oxidized LDL, intracellular cholesterol esterification enzyme ACAT1, and ABCA1, ABCG1, and SR-BI, which are involved in cholesterol efflux) was analyzed by Western blotting. For the internal standard of the macrophage function, β-actin expression was also examined. For quantification of the band concentration, Analyzer (ATTO Corporation, Tokyo) was used.

ABCA1 = ABCA1 expression by macrophages of treated apoE-deficient mice (Western blotting); assay type: in vivo; details: 0.6 nmol/kg/h, four weeks; range given jointly for ABCA1, ABCG1, SR-BI; P<0.05
Description: as §1, §2

ABCG1 = ABCG1 expression by macrophages of treated apoE-deficient mice (Western blotting); assay type: in vivo; details: 0.6 nmol/kg/h, four weeks; range given jointly for ABCA1, ABCG1, SR-BI; P<0.05
Description: as §1, §2

SR-BI = SR-BI expression by macrophages of treated apoE-deficient mice (Western blotting); assay type: in vivo; details: 0.6 nmol/kg/h, four weeks; range given jointly for ABCA1, ABCG1, SR-BI; P<0.05
Description: as §1, §2

salusin-α: peptide (SEQ ID NO: 1) comprising 28 amino acid residues, generated by processing from preprosalusin (SGALPPAPAAPRPALRAQRAGPAGPGAK; listed as Homo sapiens)
ACAT activity, percent of that of the control (ACAT activity): 50% | cholesterol efflux caused by HDL relative to control [1]: approximately 2 times | ACAT1 protein expression relative to initial level (ACAT1; salusin-α 0.6 nmol/kg/h): approximately half | ABCA1 protein expression relative to initial level (ABCA1): 1.5 to 2 times | ABCG1 protein expression relative to initial level (ABCG1): 1.5 to 2 times | SR-BI protein expression relative to initial level (SR-BI): 1.5 to 2 times

salusin-β: peptide (SEQ ID NO: 3) comprising 20 amino acid residues, generated by processing from preprosalusin (AIFIFIRWLLKLGHHGRAPP; listed as Homo sapiens) [reference compound]
ACAT activity relative to control (ACAT activity): 1.8 times | ACAT1 protein expression relative to control level (ACAT1; 0.6 nmol/kg/h, range given jointly for CD36, SR-A, ACAT1): 1.5 to 2.8 times
